Data on seven compounds can be found in patent US20100022402A1, “Methods and Compositions for the In Vitro High-Throughput Detection of Protein/Protein Interactions” (priority 2004, published 2010).

Assay [1] deals with λD-CUE:λD-Ubiquitin association. The assay is described as follows: Titration of λD-CUE:λD-Ubiquitin phage association by free proteins (loss of double resistant multilysogen formation). It is filed as binding. The note with it: for titration of λD-CUE:λD-Ubiquitin by non-partner peptides: acidic or basic aptamers. The method, then: Lambda display phages are used to co-infect cells at an MOI of 0.04. In the presence of increasing concentrations of the wtUbiquitin (diamonds), wt CUE (squares) or mutant CUEM419D (triangles) protein is added to the phage pair, and positive λD-CUE:λD-Ubiquitin association is scored by the loss of double resistant multilysogen formation. The results are tabulated as the number of colonies counted, with the point representing the maximum number of lysogens for this given MOI.
(§1) Display phages are assayed for their ability to associate with other phages bearing a potential binding partner, with a non-binding partner and with a non-display D vector phage (i.e. λA2 and λA3). The production of double antibiotic resistant (Cml^r/Kan^r) multilysogen E. coli LE392 is used to mark positive fusion D display protein-protein interaction. First, the phages are combined to yield a chosen MOI (a typical initial range is 0.002-0.04), and allowed to associate for 5 minutes at room temperature (RT) prior to dilution with 220 uL of Salted Association Buffer (SAB; 20 mM Tris.HCLpH7.4, 10 mM CaCl2, 10 mM MgCl2 and 100 mM NaCl). After 10 minutes at room temperature, 1×10^8 of fresh log-phase E. coli LE392 recovered in [LB+0.4% maltose+10 mM CaCl2] is added. Phage-phage association, co-infection and antibiotic gene expression are allowed to proceed for 45 min-1 h at RT, followed by plating on agar supplemented with 10^ug/mL Cml+30^ug/mL Kan. Plates are incubated overnight at 32° C. for lysogen formation.

The test system of assay [2] is λD-Acid:λD-Base association. The assay is described as follows: Titration of λD-Acid:λD-Base phage association by free competitors (loss of double resistant multilysogen formation). It counts as binding. The settings on record: for IC50, inhibition of Acid/Base association: MOI of 0.0025, aptamer 0.001 μM to 5 μM, FIG. 6; for Kd: free synthetic peptide competing with aptamer interaction, read-out: apparent KD (concentration of free peptide that results in an IC50); for concentration found to inhibit the λD-Acid:λD-Base interaction: free amino acid; for cross-inhibition of λD-Acid:λD-Base: non-partner free proteins. The procedure: Lambda display phages are used to co-infect cells at an MOI of 0.0025. In the presence of increasing concentrations of the Acidic (triangles) or Basic (square) Aptamer (0.001 μM to 5 μM), titration of Acid/Base association is scored by the loss of double resistant multilysogen formation. The point representing the maximum number of lysogens for this given MOI.
as §1

The next assay concerns E. coli LE392 cells. Kind of assay: Protein association assay: lysogen formation after infection with vector or display phages. It counts as cell-based. The note with it: single input phage, MOI 0.1. The method, then: as §1
In a further assay the target is T1, CUE (Saccharomyces cerevisiae, UniProt P54787).
T1 construct: The CUE domain (50 amino acid residues), as characterized by the conserved MFP and LL motifs
T1 sequence (P54787 408-451 limits assumed): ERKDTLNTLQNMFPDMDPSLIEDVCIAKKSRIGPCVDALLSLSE
The note with it: CUE binds itself via an alpha helix interface; read-out: Kd (dimerization); cited from earlier work.

Another assay concerns the target monoubiquitin (Homo sapiens, UniProt P0CG47). The settings on record: cited from earlier work.

Where two headings read alike, the source gives them in different places.

With GRGRGRGR [Basic Aptamer, [Gly-Arg]4], the “titration of λD-CUE:λD-Ubiquitin by non-partner peptides” value in assay [1] was “nor is λD-CUE:λD-Ubiquitin titrated”. Besides, in assay [2], the “IC50, inhibition of Acid/Base association” value was around 0.01 µM and the Kd stood at 0.01 µM.
For Ubiquitin, in the assay with E. coli LE392 cells, the “Number of Cml^r/Kan^r Cells” value stood at 0 and the “Number of Kan^r Cells” value is 3 × 10^6.
In the case of `N[C@@H](CCC(=O)O)C(=O)O` [Glutamic acid], the “concentration found to inhibit the λD-Acid:λD-Base interaction” value in assay [2] was determined as 0.679 mM.
Still for that read-out and setting: the figure for `N=C(N)NCCC[C@H](N)C(=O)O` [Arginine] is 4.6 mM.
With GEGEGEGE [Acidic Aptamer, [Gly-Glu]4], in assay [1], the “titration of λD-CUE:λD-Ubiquitin by non-partner peptides” value is recorded as “nor is λD-CUE:λD-Ubiquitin titrated”. In assay [2], the “IC50, inhibition of Acid/Base association” value was around 0.01 µM and the Kd worked out at 0.01 µM.
Regarding “CUEM419D: non-binding mutant CUE protein (KKIEENERKDTLNTLQNDFPDMDPSLIEDVCIAKKSRIGPCVDALLSLSE)”, in assay [1] (MOI of 0.04, FIG. 7), the “titration point of λD-CUE:λD-Ubiquitin association” value is “no titration point”. The “ability to challenge the λD-CUE:λD-Ubiquitin interaction” value in assay [1] (even at a concentration of 1 mM) was “unable to challenge”. Also, the “cross-inhibition of λD-Acid:λD-Base” value in assay [2] is reported as “no cross-inhibition”.
Consider “wt CUE: free wild type CUE domain (50 amino acids) of Vsp9p (KKIEENERKDTLNTLQNMFPDMDPSLIEDVCIAKKSRIGPCVDALLSLSE)”, for which the Kd in assay [1] (free protein, read-out: apparent KD, competition of λD-Cue:λD-Ubiquitin pair) was 0.002 µM; in the assay with CUE, 1000 µM; with monoubiquitin (CUE as a dimer (dimericCue:Ubiquitin), read-out: apparent KD, CUE binding Ubiquitin), 1.2 µM; with monoubiquitin (CUE as a monomer, read-out: KD, CUE binding monoubiquitin), 20 µM. The “cross-inhibition of λD-Acid:λD-Base” value in assay [2] is reported as “no cross-inhibition”.
